Assay results taken from PMC7999448, “Antibacterial and COX-2 Inhibitory Tetrahydrobisbenzylisoquinoline Alkaloids from the Philippine Medicinal Plant Phaeanthus ophthalmicus” (Plants, 2021).

Legend:
ovine COX-1 = target: T1, ovine COX-1 (Ovis aries, UniProt P05979); test: colorimetric peroxidase assay, TMPD oxidation at […] nm (Cayman kit); type: biochemical
T1 construct: gene PTGS1
T1 sequence (P05979 25-600): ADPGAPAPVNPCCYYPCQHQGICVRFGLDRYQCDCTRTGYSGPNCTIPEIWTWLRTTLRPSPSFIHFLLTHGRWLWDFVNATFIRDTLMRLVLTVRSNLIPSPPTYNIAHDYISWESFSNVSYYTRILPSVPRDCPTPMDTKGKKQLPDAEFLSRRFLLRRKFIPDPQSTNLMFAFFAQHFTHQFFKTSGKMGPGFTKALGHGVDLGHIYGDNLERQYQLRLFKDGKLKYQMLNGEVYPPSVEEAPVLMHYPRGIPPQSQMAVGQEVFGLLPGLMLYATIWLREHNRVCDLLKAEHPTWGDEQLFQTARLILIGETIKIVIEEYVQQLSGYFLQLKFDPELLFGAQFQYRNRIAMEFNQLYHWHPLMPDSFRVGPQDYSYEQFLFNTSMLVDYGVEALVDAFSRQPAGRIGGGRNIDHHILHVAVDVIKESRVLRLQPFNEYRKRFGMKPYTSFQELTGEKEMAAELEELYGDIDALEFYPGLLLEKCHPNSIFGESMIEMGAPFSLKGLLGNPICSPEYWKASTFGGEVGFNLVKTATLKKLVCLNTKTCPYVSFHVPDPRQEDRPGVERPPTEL

ovine COX-2 = target: T2, ovine COX-2 (Ovis aries, UniProt P79208); test: as above; type: biochemical; conditions: read-out: IC50 (μM) vs. COX / COX-1
T2 construct: gene PTGS2
T2 sequence (P79208 17-603): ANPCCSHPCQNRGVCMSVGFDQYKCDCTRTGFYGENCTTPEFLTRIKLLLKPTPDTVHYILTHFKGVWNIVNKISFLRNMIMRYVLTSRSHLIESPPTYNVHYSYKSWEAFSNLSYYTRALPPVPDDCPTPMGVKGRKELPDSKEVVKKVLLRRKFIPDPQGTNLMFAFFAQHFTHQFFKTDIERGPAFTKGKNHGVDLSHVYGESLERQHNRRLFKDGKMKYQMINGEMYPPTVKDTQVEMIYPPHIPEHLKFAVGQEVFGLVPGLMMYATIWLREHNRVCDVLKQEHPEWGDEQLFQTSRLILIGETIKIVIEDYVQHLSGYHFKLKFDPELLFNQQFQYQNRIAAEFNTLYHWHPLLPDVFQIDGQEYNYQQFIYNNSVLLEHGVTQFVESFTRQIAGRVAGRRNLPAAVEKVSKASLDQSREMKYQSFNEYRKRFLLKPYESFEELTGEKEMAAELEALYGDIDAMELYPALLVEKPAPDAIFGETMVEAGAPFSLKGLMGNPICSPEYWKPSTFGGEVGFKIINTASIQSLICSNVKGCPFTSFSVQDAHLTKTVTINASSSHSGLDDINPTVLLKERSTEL

- IC50 (ovine COX-1): > 100 µM
- IC50 (ovine COX-2): > 100 µM
Compound: COc1ccc2cc1Oc1ccc(cc1)C[C@H]1c3cc(c(OC)cc3CCN1C)Oc1c(OC)c(OC)cc3c1[C@H](C2)N(C)CC3 [compound 1, (+)-tetrandrine]
